Measurements: patent US10603289B2, “Process for the manufacture of ajoene derivatives” (DANMARKS TEKNISKE UNIVERSITET, priority 2010, dated 2020)

Key:
Gram negative bacteria = conditions: E:Z=1:4 isomer used; cited from earlier work
[1] = tested on: P. aeruginosa biofilms exposed to PMNs; test: Flow chamber biofilm exposed to PMNs, propidium iodide staining; format: cell-based; conditions: biofilm grown four days in the presence of 100 μg/ml ajoene; E:Z 1:4
Description: A) The biofilm has grown without ajoene in the medium. B) The biofilm has grown in the presence of 100 μg/mL ajoene in the medium. Red fluorescence indicates necrotic PMN's leaking out their content of DNA (as stained by PI). Green fluorescence indicates top areas of the P. aeruginosa biofilm.
Biofilms exposed to PMN leukocytes produce rhamnolipids that function as a shield and protects the biofilm bacteria from phagocytosis. […] 20-42]. The P. aeruginosa biofilms were grown for four days either in the presence or absence of 100 μg/ml ajoene. When PMNs subsequently were introduced in the flow chambers on top of the biofilms grown in the absence of ajoene, propidium iodide (PI) staining indicated necrosis of the PMNs (FIG. 5A). […] Ajoene treatment therefore rescues the PMN leukocytes by blocking biofilm synthesis of […]. It has previously been shown that rescued PMN's can phagocytose biofilm bacteria [T. Bjarnsholt et al., Microbiology, 2005, 151, p. 3873-3880]. (E,Z) ajoene having an E:Z ratio of 1:4 was used.

**Q.** For `C=CCSSC=CC[S+]([O-])CC=C` (centres unmarked) [ajoene, (E,Z)-4,5,9-trithiadodeca-1,6,11-triene-9-oxide], which “inhibitory effect on Gram negative bacteria” value (Gram negative bacteria) is on record?
**A.** varied inhibitory effect

**Q.** And the “necrosis of PMNs on biofilm (PI staining)” value [1]?
**A.** no necrosis of the PMNs was observed
